Measured values published in patent US10227310B2, “Ghrelin 0-acyl transferase inhibitors” (Eli Lilly and Company, priority 2015, dated 2019).

Legend:
GOAT enzyme = GOAT enzyme (Mus musculus (Mouse), UniProt P0C7A3); assay: In vivo dose dependent 3 day BID study for GOAT inhibitor (plasma AG, UAG by ELISA); parameters: species or system male C57BL/6 mice; settings: mice; for decrease of plasma AG / increase of UAG / reduction in AG to total ghrelin ratio: 3 days; for decrease of plasma AG / increase of UAG: vs vehicle; for reduction in AG to total ghrelin ratio: vs vehicle-treated control animals; for AG (% of control) / AG/Total-ghrelin (% of vehicle control) / UAG (% of vehicle control): plasma
Procedure: Comparing the change in the ratio of AG to total ghrelin in the compound treated group and that of the vehicle treated group reflects the degree of GOAT enzyme inhibition in vivo, due to the dynamic processing of UAG to AG by the GOAT enzyme. In the in vivo pharmacodynamic studies herein, the levels of AG and UAG in plasma and stomach in the vehicle and compound treated groups are measured by ELISA specifically to these two analytes. The total ghrelin level of each sample is computed as the sum of AG and UAG by these ELISA measurements. The ratio of AG to total ghrelin is defined by the level of AG in each sample divided by the level of total ghrelin in the same sample. The levels of AG, UAG and ratio of AG to total ghrelin in the vehicle treated group is computed and set as 100%. The relative change of these parameters in the compound treated group is then computed to determine the effectiveness of the test compound.
Purchase male C57BL/6 mice from Harlan (Indianapolis, Ind.) at 9 weeks of age. House the mice individually in a temperature-controlled (24° C.) facility with a 12 h light/dark cycle (lights on 2200 h), and allow free access to a standard rodent chow (diet 2014, Harlan) and water. Typically, use the mice when they are 10-13 weeks of age at the time of the study. On day 0 of the experiment, randomize the mice into treatment groups (N=7/group) so each group has similar mean body weights. On day 1 and day 2, treat the animals with vehicle (1% hydroxyethylcellulose, 0.25% TWEEN™ 80, 0.05% antifoam) or test compound prepared in the vehicle as suspension at various dosages by oral gavage at 7 am and 7 pm. On day 3, fast the animals, move them into clean cages and dose with vehicle or the test compound again at 8 am by oral gavage. That same day at 1 pm, sacrifice the animals by decapitation to collect blood. For details of blood collection and plasma treatments see Blood collection and Extraction of Ghrelin from Plasma section below.
Collect approximately 600 μL blood into a pre-weighed EDTA tube containing 600 μL (defined as Vpreservative) freshly-prepared preservative (4 mM PEFABLOC® [4-(2-aminoethyl) benzenesulfonyl fluoride hydrochloride], 72 mM NaCl, 58 mM NaF, 0.032 N hydrochloric acid, pH 3.0) and mix immediately. Weigh the tube again and keep on ice. To accurately determine the exact blood volume of each sample using this blood collection procedure, the weight of the blood for each mouse is computed using the following equation: Weight of Blood=(Weight of the tube containing Blood+preservative)−(Weight of the tube containing preservative) Blood volume(Vblood)=(Weight of blood)/1.06
Within 15 minutes after the blood collection, samples are centrifuged at 5000 rpm at 4° C. for 8 min. Remove plasma (650 μL) to a 5 mL glass tube containing 1 N hydrochloric acid (65 μL), mix and keep on ice.
AG and UAG are extracted from plasma using SEP-PAK® C18 column to remove interference prior to performing the ELISA. The solid phase extraction of AG and UAG peptides by SEP-PAK® C18 columns can be performed on a vacuum manifold (Waters Corp) or using a peristaltic pump. The sample SEP-PAK® column extraction procedure is independently applied to the plasma sample obtained from each individual mouse. The general extraction protocol is described as follows.
All solutions used for the entire protocol of the SEP-PAK® column extraction should be at ice cold condition. Wet SEP-PAK®_columns (WAT054960, Waters Corp, Milford Mass.) with 99.9% ACN/0.1% TFA (1 mL of solution of 100 mL ACN/0.1 mL TFA). […] Once liquid is removed from the column, stop the pressure. Equilibrate the columns with 3% ACN/0.1% TFA (1 mL of 97 mL water, 3 mL ACN, 0.1 mL TFA). […] Dilute approximately 650 μL acidified plasma (defined as Vplasma added to column) to 1.4 mL ice cold 0.1% TFA. Load all diluted acidified plasma from the previous step onto the columns. […]

human GOAT = human GOAT (Homo sapiens (Human), UniProt Q96T53); assay: In vitro cell free human GOAT enzymatic assay; assay type: biochemical; settings: cell free human GOAT enzyme, ELISA readout of acyl-ghrelin
Chain of human GOAT (Q96T53 whole entry): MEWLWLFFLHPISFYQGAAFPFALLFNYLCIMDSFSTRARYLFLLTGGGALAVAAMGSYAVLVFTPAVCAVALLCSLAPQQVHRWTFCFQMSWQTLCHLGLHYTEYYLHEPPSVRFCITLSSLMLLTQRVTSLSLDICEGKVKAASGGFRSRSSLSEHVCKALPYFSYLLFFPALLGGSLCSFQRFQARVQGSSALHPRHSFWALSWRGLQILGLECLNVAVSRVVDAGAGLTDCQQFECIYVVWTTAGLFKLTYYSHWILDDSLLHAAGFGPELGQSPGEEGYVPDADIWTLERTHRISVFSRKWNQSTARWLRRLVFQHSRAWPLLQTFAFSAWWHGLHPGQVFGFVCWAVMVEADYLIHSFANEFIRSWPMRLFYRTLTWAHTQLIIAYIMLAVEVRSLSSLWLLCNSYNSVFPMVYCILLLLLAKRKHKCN
Procedure: Human GOAT gene (Accession number: NM_001100916) is subcloned to pAN51 baculoviral expression vector. Baculovirus stock is prepared following the Bac-to-Bac Protocol provided by the vendor, Invitrogen, California, USA. Five mililiters of human GOAT baculoviral stock are added to 500 mL Sf9 cells in HyQ SFX-Insect™ media (HyClone catalog number SH30278.02) at the density of 1×10^6 cells per milliliter in a 2 L Erlenmeyer flask. The flask with human GOAT gene infected Sf9 cells is put on a plate shaker at 120 rpm at 28° C. for 48 h. After 48 h incubation, cells are centrifuged at 1,000×g for 10 min at 4° C. The cell pellets are collected and stored at −80° C. in a freezer until ready for further processing.
Preparation of Microsomal Membrane of GOAT Enzyme for the Enzymatic Assay:
One gram cell pellets are suspended in 9 mL chilled homogenization buffer (50 mM Tris-HCl, 250 mM sucrose, adjusted to pH 7.5, and sterile filtered through 0.2 μm Millipore filter). The cell suspension is transferred to a Dounce glass homogenizer. Cell pellets are homogenized with 40 strokes on ice. The homogenate is centrifuged at 3,000 rpm in a Beckman swing bucket rotor at 4° C. for 10 min to remove unbroken cells. The supernatant is collected and centrifuged at 40,000×g for 1 h at 4° C. The resulting membrane pellet is suspended in the homogenization buffer using a Dounce glass homogenizer and stored at −20° C. in the freezer for the assay. For long term storage of the human GOAT enzyme membrane preparation, the suspended membrane is stored in a −80° C. freezer.
Human GOAT Enzymatic Assay Protocol:
Prepare test compounds in DMSO to make up a 0.2 mM stock solution. Serially dilute the stock solution in DMSO for ten concentrations with final compound concentrations ranging from 10 μM to 0.5 nM in a 96-well round-bottom plate. Prepare enzyme and substrate solutions in assay buffer (0.02% TWEEN™-20 in 50 mM Tris, pH 7.5 containing 250 mM sucrose, 1 mg/mL BSA and 10 mM EDTA). Add diluted compound (1 μL) to each well of row A to N of a corresponding low protein binding 384 well plate. […] Incubate the mixture for 1 h at RT on a gently rotating oscillator. Add 4 M guanidine hydrochloride (20 μL) to all wells, mix, and incubate for 3 h to stop the reaction.
Aspirate the blocking buffer from ELISA plate and add blocking buffer (23 μL) to columns 1-24, rows A-N. Reserve rows O and P for the acylghrelin standard curve. Add the reaction mixture (2 μL) to the ELISA plates. […] Incubate the reaction mixture or biotin-labeled AG standard in the ELISA plate overnight at 4° C. The following day, wash the plate 3× with wash buffer (0.1% TWEEN™-20/PBS, 100 μL per well in each wash cycle). […] Wash the plate 3× with the wash buffer, similarly to the previous step. Add Protein G-HRP (25 μL) (Southern Biotech) diluted 3,000× in blocking buffer and incubate 1 h at RT. Wash the late 3× with wash buffer, as in the previous steps. Add TMB reagent (25 μL) (Kirkegaard & Perry Laboratories, Inc.) to each well and let develop for 20 min and stop with 1 M phosphoric acid (25 μL per well). Read plates at 450 nm using an ENVISION® Multilabel plate reader. AG levels are calculated versus a fitted standard curve and percent inhibition calculated.

Chain of GOAT enzyme (P0C7A3 whole entry): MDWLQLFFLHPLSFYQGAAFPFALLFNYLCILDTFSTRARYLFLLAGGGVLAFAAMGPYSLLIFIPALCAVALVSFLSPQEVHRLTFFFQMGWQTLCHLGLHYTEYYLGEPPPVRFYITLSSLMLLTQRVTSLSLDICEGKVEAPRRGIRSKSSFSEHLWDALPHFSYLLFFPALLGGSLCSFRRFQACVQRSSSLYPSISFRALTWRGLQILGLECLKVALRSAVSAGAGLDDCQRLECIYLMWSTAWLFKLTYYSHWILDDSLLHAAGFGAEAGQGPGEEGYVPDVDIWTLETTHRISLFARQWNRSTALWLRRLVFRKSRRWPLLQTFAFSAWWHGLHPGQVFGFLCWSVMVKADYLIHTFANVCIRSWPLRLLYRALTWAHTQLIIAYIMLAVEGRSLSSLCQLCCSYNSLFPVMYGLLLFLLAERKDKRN

SMILES: Cc1nc(N)c(CCC2CCN(C(=O)[C@H](C)NC(=O)c3ccnn3C)CC2)c(Cl)n1 [Example 66, N-[(1S)-2-[4-[2-(4-Amino-6-chloro-2-methyl-pyrimidin-5-yl)ethyl]-1-piperidyl]-1-methyl-2-oxo-ethyl]-2-methyl-pyrazole-3-carboxamide]
- decrease of plasma AG (GOAT enzyme; 0.2 mg/kg): 34%
- increase of UAG (GOAT enzyme; 0.2 mg/kg): 2.13 fold
- reduction in AG to total ghrelin ratio (GOAT enzyme; 0.2 mg/kg): 50%
- decrease of plasma AG (GOAT enzyme; 0.6 mg/kg): 52%
- increase of UAG (GOAT enzyme; 0.6 mg/kg): 2.61 fold
- reduction in AG to total ghrelin ratio (GOAT enzyme; 0.6 mg/kg): 65%
- decrease of plasma AG (GOAT enzyme; 2 mg/kg): 72%
- increase of UAG (GOAT enzyme; 2 mg/kg): 2.92 fold
- reduction in AG to total ghrelin ratio (GOAT enzyme; 2 mg/kg): 79%
- decrease of plasma AG (GOAT enzyme; 6 mg/kg): 79%
- increase of UAG (GOAT enzyme; 6 mg/kg): 3.02 fold
- reduction in AG to total ghrelin ratio (GOAT enzyme; 6 mg/kg): 84%
- decrease of plasma AG (GOAT enzyme; 18 mg/kg): 81%
- increase of UAG (GOAT enzyme; 18 mg/kg): 2.79 fold
- reduction in AG to total ghrelin ratio (GOAT enzyme; 18 mg/kg): 86%
- AG (% of control) (GOAT enzyme; 0.2 mg/kg oral BID 3 days): 66 ± 12 (n = 7) % of control
- AG/Total-ghrelin (% of vehicle control) (GOAT enzyme; 0.2 mg/kg oral BID 3 days): 50 ± 3 (n = 7) % of vehicle control
- UAG (% of vehicle control) (GOAT enzyme; 0.2 mg/kg oral BID 3 days): 213 ± 27 (n = 7) % of vehicle control
- AG (% of control) (GOAT enzyme; 0.6 mg/kg oral BID 3 days): 48 ± 4 (n = 7) % of control
- AG/Total-ghrelin (% of vehicle control) (GOAT enzyme; 0.6 mg/kg oral BID 3 days): 35 ± 1 (n = 7) % of vehicle control
- UAG (% of vehicle control) (GOAT enzyme; 0.6 mg/kg oral BID 3 days): 261 ± 30 (n = 7) % of vehicle control
- AG (% of control) (GOAT enzyme; 2 mg/kg oral BID 3 days): 28 ± 3 (n = 14) % of control
- AG/Total-ghrelin (% of vehicle control) (GOAT enzyme; 2 mg/kg oral BID 3 days): 21 ± 1 (n = 14) % of vehicle control
- UAG (% of vehicle control) (GOAT enzyme; 2 mg/kg oral BID 3 days): 292 ± 43 (n = 14) % of vehicle control
- AG (% of control) (GOAT enzyme; 6 mg/kg oral BID 3 days): 21 ± 3 (n = 7) % of control
- AG/Total-ghrelin (% of vehicle control) (GOAT enzyme; 6 mg/kg oral BID 3 days): 16 ± 1 (n = 7) % of vehicle control
- UAG (% of vehicle control) (GOAT enzyme; 6 mg/kg oral BID 3 days): 302 ± 48 (n = 7) % of vehicle control
- AG (% of control) (GOAT enzyme; 18 mg/kg oral BID 3 days): 19 ± 6 (n = 7) % of control
- AG/Total-ghrelin (% of vehicle control) (GOAT enzyme; 18 mg/kg oral BID 3 days): 14 ± 2 (n = 7) % of vehicle control
- UAG (% of vehicle control) (GOAT enzyme; 18 mg/kg oral BID 3 days): 279 ± 36 (n = 7) % of vehicle control
- IC50 (human GOAT): 68.9 ± 23.6 nM

SMILES: Cc1nc(N)c(CCC2CCN(C(=O)[C@H](C)NC(=O)c3cnc(C)s3)CC2)c(Cl)n1 [Example 42, N-[(1S)-2-[4-[2-(4-Amino-6-chloro-2-methyl-pyrimidin-5-yl)ethyl]-1-piperidyl]-1-methyl-2-oxo-ethyl]-2-methyl-thiazole-5-carboxamide]
- decrease of plasma AG (GOAT enzyme; 0.3 mg/kg): 51%
- increase of UAG (GOAT enzyme; 0.3 mg/kg): 1.61 fold
- reduction in AG to total ghrelin ratio (GOAT enzyme; 0.3 mg/kg): 61%
- decrease of plasma AG (GOAT enzyme; 1 mg/kg): 57%
- increase of UAG (GOAT enzyme; 1 mg/kg): 2.04 fold
- reduction in AG to total ghrelin ratio (GOAT enzyme; 1 mg/kg): 73%
- decrease of plasma AG (GOAT enzyme; 3 mg/kg): 70%
- increase of UAG (GOAT enzyme; 3 mg/kg): 2.00 fold
- reduction in AG to total ghrelin ratio (GOAT enzyme; 3 mg/kg): 81%
- AG (% of control) (GOAT enzyme; 0.3 mg/kg oral BID 3 days): 49 ± 7 (n = 7) % of control
- AG/Total-ghrelin (% of vehicle control) (GOAT enzyme; 0.3 mg/kg oral BID 3 days): 39 ± 2 (n = 7) % of vehicle control
- UAG (% of vehicle control) (GOAT enzyme; 0.3 mg/kg oral BID 3 days): 161 ± 24 (n = 7) % of vehicle control
- AG (% of control) (GOAT enzyme; 1 mg/kg oral BID 3 days): 43 ± 6 (n = 7) % of control
- AG/Total-ghrelin (% of vehicle control) (GOAT enzyme; 1 mg/kg oral BID 3 days): 27 ± 1 (n = 7) % of vehicle control
- UAG (% of vehicle control) (GOAT enzyme; 1 mg/kg oral BID 3 days): 204 ± 24 (n = 7) % of vehicle control
- AG (% of control) (GOAT enzyme; 3 mg/kg oral BID 3 days): 30 ± 4 (n = 7) % of control
- AG/Total-ghrelin (% of vehicle control) (GOAT enzyme; 3 mg/kg oral BID 3 days): 19 ± 1 (n = 7) % of vehicle control
- UAG (% of vehicle control) (GOAT enzyme; 3 mg/kg oral BID 3 days): 200 ± 20 (n = 7) % of vehicle control
- IC50 (human GOAT): 96.4 ± 28.3 nM

SMILES: COC(=O)N[C@@H](C)C(=O)N1CCC(CCc2c(N)nc(C)nc2Cl)CC1 [Example 71, Methyl N-[(1S)-2-[4-[2-(4-amino-6-chloro-2-methyl-pyrimidin-5-yl)ethyl]-1-piperidyl]-1-methyl-2-oxo-ethyl]carbamate]
- decrease of plasma AG (GOAT enzyme; 0.3 mg/kg): 13%
- increase of UAG (GOAT enzyme; 0.3 mg/kg): 2.87 fold
- reduction in AG to total ghrelin ratio (GOAT enzyme; 0.3 mg/kg): 59%
- decrease of plasma AG (GOAT enzyme; 1 mg/kg): 37%
- increase of UAG (GOAT enzyme; 1 mg/kg): 3.44 fold
- reduction in AG to total ghrelin ratio (GOAT enzyme; 1 mg/kg): 73%
- decrease of plasma AG (GOAT enzyme; 3 mg/kg): 66%
- increase of UAG (GOAT enzyme; 3 mg/kg): 2.90 fold
- reduction in AG to total ghrelin ratio (GOAT enzyme; 3 mg/kg): 82%
- AG (% of control) (GOAT enzyme; 0.3 mg/kg oral BID 3 days): 87 ± 18 (n = 7) % of control
- AG/Total-ghrelin (% of vehicle control) (GOAT enzyme; 0.3 mg/kg oral BID 3 days): 41 ± 3 (n = 7) % of vehicle control
- UAG (% of vehicle control) (GOAT enzyme; 0.3 mg/kg oral BID 3 days): 287 ± 43 (n = 7) % of vehicle control
- AG (% of control) (GOAT enzyme; 1 mg/kg oral BID 3 days): 63 ± 15 (n = 7) % of control
- AG/Total-ghrelin (% of vehicle control) (GOAT enzyme; 1 mg/kg oral BID 3 days): 27 ± 2 (n = 7) % of vehicle control
- UAG (% of vehicle control) (GOAT enzyme; 1 mg/kg oral BID 3 days): 344 ± 63 (n = 7) % of vehicle control
- AG (% of control) (GOAT enzyme; 3 mg/kg oral BID 3 days): 34 ± 5 (n = 7) % of control
- AG/Total-ghrelin (% of vehicle control) (GOAT enzyme; 3 mg/kg oral BID 3 days): 18 ± 1 (n = 7) % of vehicle control
- UAG (% of vehicle control) (GOAT enzyme; 3 mg/kg oral BID 3 days): 290 ± 30 (n = 7) % of vehicle control
- IC50 (human GOAT): 149 ± 46 nM

SMILES: Cc1nc(Cl)nc(N)c1CCC1CCN(C(=O)[C@H](C)NC(=O)c2cn[nH]c2C)CC1 [Example 2, N-[(1S)-2-[4-[2-(4-Amino-2-chloro-6-methyl-pyrimidin-5-yl)ethyl]-1-piperidyl]-1-methyl-2-oxo-ethyl]-5-methyl-1H-pyrazole-4-carboxamide]
- IC50 (human GOAT): 54.4 nM

SMILES: Cc1nc(N)c(CCC2CCCN(C(=O)[C@H](C)NC(=O)c3ccncc3)CC2)c(Cl)n1 (stereo partly drawn) [Example 37, N-[(1S)-2-[(4R,S)-4-[2-(4-Amino-6-chloro-2-methyl-pyrimidin-5-yl)ethyl]azepan-1-yl]-1-methyl-2-oxo-ethyl] pyridine-4-carboxamide]
- IC50 (human GOAT): 574 nM
